Assay results reported in patent US8778884B2, “Glioprotectant peptide for use in the treatment of amyotrophic lateral sclerosis (ALS) and methods related thereto” (Fondazione Salvatore Maugeri Clinica del Lavora e Della …, priority 2011, dated 2014).
Values joined by “and” are separate entries in the source; they are usually repeats but may differ in a detail not shown here. Equal entries are not always repeated. “Also recorded” adds a separate entry of the source.

What was measured:
[1] = tested on: hSOD1^G93A-expressing astrocytes; experiment: single-cell Fluo4 [Ca^2+]i imaging in hSOD1^G93A-expressing astrocytes; assay type: cell-based, mouse
Experimental: (§1) Astrocytes cultures. Primary astrocyte cultures (>99% GFAP-positive) were prepared from the spinal cord of newborn mice (hSOD1^G93A or wild-type littermates). Once the cultures reached the confluence, they were replated at the optimal density either in 24-well plates or 35-mm Petri dishes containing glass coverslips and maintained in Minimal Essential Medium (MEM, GIBCO) supplemented with 10% foetal bovine serum (FBS, Sigma-Aldrich).
(§2) [Ca^2+]i imaging. ASTROCYTES were plated (2.5×10^4 cells/35 mm Petri dish) on glass coverslips and used 2-3 days later as already shown. Before imaging, cells were loaded with 5 μM Fluo4-AM (Molecular Probes) for 15-20 min. at 37° C. in a HEPES-KRH buffer containing (in mM): NaCl 116, KCl 4, MgCl2 1, CaCl2 1.8, HEPES-acid 10, glucose 25 (pH 7.4) and then allowed to de-esterify for 10 min. After several washes, coverslips were mounted in an open perfusion micro-incubator (PDMI-2, Harvard Apparatus) set at 37° C. on the stage of the optical recording microscope. During experiments, cells were continuously perfused with HEPES-KRH (1 ml/min), and 100 μM DHPG was applied via a software-controlled micro-perfusion fast-step device (100 μl/min, Warner Instrument Corp.) A Zeiss Axiovert 200 inverted fluorescence microscope was modified to allow EPI illumination (Visitron Systems). Fluo4 fluorescence was recorded through a 63× or 40× objectives lens (Zeiss, Neofluar 63×/1.25 Oil, Neofluar 40×/1.3 Oil) and directed through a Zeiss filter set 10 (BP 450-490; BP 515-565) at 200- or 400 ms of intervals by imaging with excitation light at 488 nm generated by a polychromator illumination system (Visichrome, Visitron). Video images, digitized with MetaFluor, were analyzed with MetaMorph software (Universal Imaging). Temporal dynamics of Fluo4 fluorescence have been expressed as background-subtracted ΔF/F0(%), where F0 represents the fluorescence level of the cells before stimulation, and F represents the change in fluorescence occurring during the stimulus.
(§3) [Ca^2+]i imaging. The measurements of [Ca^2+]i were performed as described in Example 2. Briefly, cells were loaded with 5 μM Fluo4-AM and then allowed to de-esterify for 10 min.
(§4) After several washes, coverslips were mounted in an open perfusion micro-incubator set at 37° C. on the stage of the optical recording microscope. During experiments, cells were continuously perfused with HEPES-KRH (1 ml/min), and 0.5 μM TAT-BH4 was applied 30 min. before adding 100 μM DHPG via a software-controlled micro-perfusion fast-step device (100 μl/min, Warner Instrument Corp.).

wild-type astrocytes = experiment: single-cell Fluo4 [Ca^2+]i imaging in wild-type astrocytes; assay type: cell-based, mouse
Experimental: as §1, §2, §3, §4

[2] = tested on: hSOD1^G93A-expressing astrocytes; experiment: astrocyte toxicity assay, DHPG challenge (nuclear condensation, active caspase-3); assay type: cell-based, mouse
Experimental: (§5) Pharmacological treatments in vitro. To assess the ability of TAT-BH4 to penetrate into cells, astrocytes (8×10^4 cells/well) were plated in 24-well plates containing glass coverslips. Cultures were treated with 10 μg/ml Hoechst 33342 (Sigma) for 15 min., quickly washed and incubated with 0.5 μM TAT-BH4 (TAT^48-57 conjugated to the BH4 domain of Bcl-XL) either unconjugated or conjugated with 5(6)-carboxyfluorescein (FAM, Primm srl) for 30 min. Peptides in excess were subsequently removed, cells were washed and immediately fixed (methanol:acetone 1:1 for 10 min.) or maintained in culture for 24 hrs and then fixed. The presence of the peptides inside the cells was evaluated by a digital camera (DFC 310 FX, Leica Microsystem) mounted on a DM5000 B microscope (Leica Microsystem) and analysed by Leica Application Suite 3.5.0 software. […]
(§6) Astrocyte toxicity assays. The toxic effect of DHPG or staurosporine on cultured astrocytes was determined by double staining with the fluorescent nuclear dye Hoechst 33342 and anti-active caspase-3 immunocytochemistry using a rabbit polyclonal antibody (1:50, Cell Signalling Technology). The number of astrocytes showing condensed nuclei and activated caspase-3 24 hrs after the pharmacological challenge was counted by two independent operators in a blind manner. […]

[3] = tested on: hSOD1^G93A-expressing astrocytes; experiment: cytochrome c release (co-localization of Cyt c with SOD2); assay type: cell-based, mouse; details: DHPG 100 μM
Experimental: Pharmacological treatments in vitro. To assess the ability of TAT-BH4 to penetrate into cells, astrocytes (8×10^4 cells/well) were plated in 24-well plates containing glass coverslips. Cultures were treated with 10 μg/ml Hoechst 33342 (Sigma) for 15 min., quickly washed and incubated with 0.5 μM TAT-BH4 (TAT^48-57 conjugated to the BH4 domain of Bcl-XL) either unconjugated or conjugated with 5(6)-carboxyfluorescein (FAM, Primm srl) for 30 min. Peptides in excess were subsequently removed, cells were washed and immediately fixed (methanol:acetone 1:1 for 10 min.) or maintained in culture for 24 hrs and then fixed. The presence of the peptides inside the cells was evaluated by a digital camera (DFC 310 FX, Leica Microsystem) mounted on a DM5000 B microscope (Leica Microsystem) and analysed by Leica Application Suite 3.5.0 software. To test the protective efficacy of TAT-BH4, astrocytes in culture were pre-exposed to different concentrations of the peptide (0.1 and/or 0.5 μM, 30 min.), washed and then treated with DHPG (100 μM, 30 min., Tocris Cookson Ltd.) or staurosporine (1 μM, 6 hrs, Sigma-Aldrich). After removal of DHPG, astrocytes were allowed to recover at 37° C. for 24 hrs.
Cytochrome c release. […] Cytochrome c release from mitochondria was determined by its co-localization with the mitochondrial protein SOD2 using JACoP plug-in ImageJ. […]

astrocyte cultures = experiment: astrocyte toxicity assay, staurosporine challenge (nuclear condensation); assay type: cell-based, mouse
Experimental: as §5, §6

hSOD1^G93A mice [4] = experiment: chronic treatment of hSOD1^G93A mice: disease onset, rotarod, survival; assay type: in vivo, mouse; details: 5 mg/kg i.p. daily from age 40 days
Experimental: Transgenic mice. Transgenic mice expressing human SOD1^G93A (B6SJL-TgN(SOD1-G93A)1Gur were purchased from The Jackson Laboratories. The colonies were maintained by breeding hemizygote males to wild-type C57BI6/SJL F1 hybrid females. Offspring were genotyped and used for subsequent studies. Animal procedures were approved by the Italian Ministry of Health.
(§7) Pharmacological treatment in vivo. hSOD1^G93A mice were administrated daily 5 mg/kg TAT-BH4 peptide in PBS containing 10% glycerol or vehicle alone (PBS plus 10% glycerol) intraperitoneally starting at the age of 40 days (n=14 mice for each condition). Mice were thereafter kept under daily observation and weighted twice a week. Age of disease onset was retrospectively determined as the time when mice reached the peak in the body weight. Motor performance was assessed twice a week by rotarod test starting at the age of 50 days. Briefly, animals were place on an accelerating rod (Ugo Basile) and the time each mouse remained on the rod was recorded. The average of three independent trials per session was used for further analysis of the data. End stage was defined as the time in which animals were unable to right themselves within 30 seconds when placed on their side.
Statistics. Data are represented as mean±s.e.m. and statistical significance is verified using GraphPad Prism software. Unpaired or paired 2-tailed t-test was used for comparisons between two groups; one-way or two-way analysis of variance (ANOVA) followed by Bonferroni post-hoc test was used for comparisons of multiple groups; repeated measures two-way ANOVA was used for behavioral test; the Logrank test was used for disease onset and survival analysis.

hSOD1^G93A mice [5] = experiment: histopathological analysis of spinal cord of treated hSOD1^G93A mice; assay type: in vivo, mouse; details: 5 mg/kg i.p. daily
From the text: Tissue preparation and immunohistological analysis. For mouse tissue preparation, the spine was taken and immersed in 4% buffered paraformaldehyde for 24 hrs; spinal cord was extracted, the lumbar tract was removed and either paraffin embedded or cryoprotected in 30% sucrose before freezing. For human tissue preparation, spinal cord was removed and 0.5 cm thick slices were taken from the cervical (C7), thoracic (T4 and T8) and lumbar (L1) levels. Slices were fixed in 10% buffered formalin and embedded in paraffin. Mouse or human spinal cords were sectioned at 5-10 μm and used to perform different immunostainings. On selected sections, the following primary antibodies were used: GFAP (mouse monoclonal antibody, 1:50, Dako), CD11b (rat monoclonal antibody, 1:500, Serotec), mGluR5 (rabbit polyclonal antibody, 1:100, MBL International Corporation); active caspase-3 (rabbit polyclonal antibody, 1:50, Cell Signalling Technology). For active caspase-3 immunostaining, a Tyramide Amplification System kit was used (Perkin Elmer, Inc.). For histopathological analysis, serial sections were either immunostained for GFAP/active caspase-3 or treated with 0.5% cresyl violet (Sigma Aldrich) to detect motor neuron Nissl substance. GFAP/active caspase-3 positive astrocytes and motor neurons were counted for a total of 9 disectors using an unbiased stereologic physical disector technique. Z-axis image stacks (z-step size: 0.5 μm) were collected to generate three-dimensional data sets of spinal cord sections on an MRC 1024 Bio-Rad confocal microscope with a 63× Plan Neofluar NA1,25 oil-immersion objective in condition of optimal iris diameter as defined by LaserSharp 2000 software. Quantitative analysis of punctuate mGluR5, GFAP or CD11 b stainings was performed on confocal acquired images (1024×1024 pixels) of the spinal cord ventral horns from both wild-type and SOD1^G93A animals using ImageJ software (National Institutes of Health). After establishing an intensity threshold, the software calculated the percentage of area occupied by mGluR5, GFAP or CD11b staining by dividing the area of immunopositivity by the total area.
as §7

[6] = TAT-BH4 0.5 μM 30 min before DHPG 100 μM
[7] = TAT-BH4 0.5 μM 30 min before STS 1 μM

## NC(C(=O)O)c1cc(O)cc(O)c1 (racemic) [DHPG, (RS)-3,5-dihydroxyphenylglycine, reference compound]
[1]; DHPG 100 μM
  change of initial [Ca^2+]i transient (ΔF/F0) with respect to wild-type cells: −63%
  peak amplitude of initial DHPG-evoked [Ca^2+]i transient: 0.1±0.08 ΔF/F0
  time to plateau of long-lasting [Ca^2+]i rise: about 10 min
wild-type astrocytes; DHPG 100 μM
  average [Ca^2+]i oscillation frequency: 17±2.5 mHz
  peak amplitude of initial DHPG-evoked [Ca^2+]i transient: 0.27±0.18 ΔF/F0
[2]; DHPG 100 μM, compared with wild-type cells
  percentage of astrocytes with nuclear condensation and caspase-3 activation, effect of DHPG: induces an increment
[3]
  mitochondria and cytochrome c, effect of DHPG: causes mitochondrial disarrangement and release of cytochrome c

## H2N-GRKKRRQRRRGGSNRELVVDFLSYKLSQKGYS-COOH (H-GRKKRRQRRRGGSNRELVVDFLSYKLSQKGYS-OH) [TAT-BH4, BH4 domain of Bcl-XL fused via GG to the protein transduction domain of the HIV TAT protein]
[1]; [6]
  average [Ca^2+]i oscillation frequency after DHPG: 14±3.1 mHz
  percentage of cells in which DHPG evokes a single [Ca^2+]i transient followed by sustained [Ca^2+]i oscillations (pattern as in wild-type): 100% and 99%
[1]; TAT-BH4 0.5 μM, 30 min
  [Ca^2+]i response to local application of the peptide alone: immediate [Ca^2+]i rise followed by sustained [Ca^2+]i oscillations
wild-type astrocytes; [7]
  change of persistent [Ca^2+]i rise evoked by STS, with respect to STS alone: −72%
  effect on [Ca^2+]i oscillations in STS-treated cells: restored [Ca^2+]i oscillations; also recorded: re-establishment of [Ca^2+]i oscillations
wild-type astrocytes; TAT-BH4 0.5 μM, 30 min
  [Ca^2+]i response to local application of the peptide alone: immediate [Ca^2+]i rise followed by sustained [Ca^2+]i oscillations
[2]; TAT-BH4 0.5 μM 30 min pre-treatment, DHPG 100 μM 30 min, 24 hrs recovery
  percentage of astrocytes with nuclear condensation and caspase-3 activation after DHPG, effect of peptide: significantly reduced; also recorded: significant reduction
[3]; TAT-BH4 0.5 μM 30 min pre-treatment
  release of cytochrome c / co-localization of Cyt c and SOD2 after DHPG, effect of peptide: restores the complete co-localization of the two proteins; also recorded: significant reduction
Astrocyte cultures; TAT-BH4 0.1 or 0.5 μM 30 min pre-incubation, STS 1 μM 6 h
  cells with nuclear condensation (apoptotic cells) after STS, effect of peptide: reduced the number of apoptotic cells in a dose-dependent manner; also recorded: potently inhibited in a dose-dependent fashion
hSOD1^G93A mice [4]
  extension of life span: 15 days
  rotarod motor performance compared to saline-treated animals: significantly improves motor performance; also recorded: performed significantly better
hSOD1^G93A mice [4]; n=14
  age at disease onset (peak body weight): 107.5 ± 1.8 days
  survival time: 138 ± 2.1 days
hSOD1^G93A mice [4]; onset = peak body weight
  delay of onset of symptoms compared to controls: 8 days
hSOD1^G93A mice [5]; n=18 fields from three mice
  CD11b-immunopositive microglial cells: 1040.7±20.4 cells/mm^2
  GFAP-positive astrocytes in spinal ventral horns: 917.9±33.1 cells/mm^2
hSOD1^G93A mice [5]; 100 day-old mice
  change in number of spheroid astrocytes immunopositive for active caspase-3, with respect to saline-treated mice: −74%
  number of caspase-3-positive cells compared to saline: significantly lower
  number of motor neurons in spinal cord: preservation of a greater number of motor neurons

## CN[C@@H]1C[C@H]2O[C@@](C)([C@@H]1OC)n1c3ccccc3c3c4c(c5c6ccccc6n2c5c31)C(=O)NC4 [STS, staurosporine, reference compound]
wild-type astrocytes; STS 1 μM
  amplitude of [Ca^2+]i plateau: 3.52±0.22 ΔF/F0
  time to plateau of long-lasting calcium rise: 75 to 80 min
Astrocyte cultures; STS 1 μM, 6 h
  percentage of cells with nuclear condensation, effect of STS: caused an increment in the percentage of cells with nuclear condensation
